Values joined by “and” are separate entries in the source; they are usually repeats but may differ in a detail not shown here. Equal entries are not always repeated. Each block holds one compound with its values, some of them ahead of it.
Test system: K24384-001-R-PDC complex spheroid viability
Assay: Anticancer human tumor K24384-001-R-PDC patient-derived pancreatic adenocarcinoma cell line growth inhibition
Conditions: for viability, T/C: stronger effect = lower value
How it was run: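 Complex spheroids of tumor cells with HUVEC and human MSCs, exposed to iadademstat combined with other agents. Each agent tested in half-log steps from near clinical Cmax (else 10 microM top), DMSO ≤0.25%.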

[1] = curve of first compound, second compound 0.1 µM
[2] = curve of first compound, second compound 0.316 µM
[3] = curve of first compound, second compound 1 µM
[4] = curve of first compound, second compound 3.16 µM
[5] = curve of first compound, second compound 10 µM
[6] = second compound 0.1 µM, first compound 0.000949 µM
[7] = second compound 0.1 µM, first compound 0.003 µM
[8] = second compound 0.1 µM, first compound 0.00949 µM
[9] = second compound 0.1 µM, first compound 0.03 µM
[10] = second compound 0.1 µM, first compound 0.0949 µM
[11] = second compound 0.1 µM, first compound 0.3 µM
[12] = second compound 0.316 µM, first compound 0.000949 µM
[13] = second compound 0.316 µM, first compound 0.003 µM
[14] = second compound 0.316 µM, first compound 0.00949 µM
[15] = second compound 0.316 µM, first compound 0.03 µM
[16] = second compound 0.316 µM, first compound 0.0949 µM
[17] = second compound 0.316 µM, first compound 0.3 µM
[18] = second compound 1 µM, first compound 0.000949 µM
[19] = second compound 1 µM, first compound 0.003 µM
[20] = second compound 1 µM, first compound 0.00949 µM
[21] = second compound 1 µM, first compound 0.03 µM
[22] = second compound 1 µM, first compound 0.0949 µM
[23] = second compound 1 µM, first compound 0.3 µM
[24] = second compound 3.16 µM, first compound 0.000949 µM
[25] = second compound 3.16 µM, first compound 0.003 µM
[26] = second compound 3.16 µM, first compound 0.00949 µM
[27] = second compound 3.16 µM, first compound 0.03 µM
[28] = second compound 3.16 µM, first compound 0.0949 µM
[29] = second compound 3.16 µM, first compound 0.3 µM
[30] = second compound 10 µM, first compound 0.000949 µM
[31] = second compound 10 µM, first compound 0.003 µM
[32] = second compound 10 µM, first compound 0.00949 µM
[33] = second compound 10 µM, first compound 0.03 µM
[34] = second compound 10 µM, first compound 0.0949 µM
[35] = second compound 10 µM, first compound 0.3 µM
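Note: spheroids exposed to agents for seven days before luminescence viability reading.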
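Throughout, for viability, T/C: 100% = DMSO vehicle control viability.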

Compound: Nc1ncn(C2CC(O)C(CO)S2)c(=O)n1 (stereo not given) + NC1CCC(NC2CC2c2ccccc2)CC1
IC50 [1]: > 300 nM | IC50 [2]: > 300 nM | IC50 [3]: > 300 nM | IC50 [4]: > 300 nM | IC50 [5]: > 300 nM | viability, T/C [6]: 92.8% | viability, T/C [7]: 85.4% | viability, T/C [8]: 93% | viability, T/C [9]: 70.1% | viability, T/C [10]: 78.1% | viability, T/C [11]: 63.3% | viability, T/C [12]: 97.4% | viability, T/C [13]: 77.4% | viability, T/C [14]: 80.6% | viability, T/C [15]: 79.7% | viability, T/C [16]: 85.1% | viability, T/C [17]: 59.5% | viability, T/C [18]: 82.2% | viability, T/C [19]: 78.1% | viability, T/C [20]: 105% | viability, T/C [21]: 78.5% | viability, T/C [22]: 73.5% | viability, T/C [23]: 65.2% | viability, T/C [24]: 98.1% | viability, T/C [25]: 97.9% | viability, T/C [26]: 85% | viability, T/C [27]: 75% | viability, T/C [28]: 81.7% | viability, T/C [29]: 48.5% | viability, T/C [30]: 90.3% | viability, T/C [31]: 98.6% | viability, T/C [32]: 71.2% | viability, T/C [33]: 79.5% | viability, T/C [34]: 69.5% | viability, T/C [35]: 61.9%

Compound: O=C(C=Cn1cnc(-c2cc(C(F)(F)F)cc(C(F)(F)F)c2)n1)NNc1cnccn1
viability, T/C (compound 0.00316 µM): 74% and 75.6% | viability, T/C (compound 0.01 µM): 61.5% and 68% | viability, T/C (compound 0.0316 µM): 60.1% and 51.8% | viability, T/C (compound 0.1 µM): 35.2% and 28.2% | viability, T/C (compound 0.316 µM): 29.8% and 27.7% | viability, T/C (compound 1 µM): 19.4% and 19.7% | IC50 (curve of compound): 45.2 nM and 32.6 nM

Compound: CC(C)CC(NC(=O)C(Cc1ccccc1)NC(=O)c1cnccn1)B(O)O (stereo not given) + NC1CC1c1ccc(-c2cccc(O)c2)cc1
IC50 [1]: 0.518 nM | IC50 [2]: 0.554 nM | IC50 [3]: 0.541 nM | IC50 [4]: 0.514 nM | IC50 [5]: 0.383 nM | viability, T/C (second compound 0.1 µM, first compound 0.000316 µM): 85.9% | viability, T/C (second compound 0.1 µM, first compound 0.001 µM): 2.19% | viability, T/C (second compound 0.1 µM, first compound 0.00316 µM): 0.45% | viability, T/C (second compound 0.1 µM, first compound 0.01 µM): 0.17% | viability, T/C (second compound 0.1 µM, first compound 0.0316 µM): 0.24% | viability, T/C (second compound 0.1 µM, first compound 0.1 µM): 0.27% | viability, T/C (second compound 0.316 µM, first compound 0.000316 µM): 95.9% | viability, T/C (second compound 0.316 µM, first compound 0.001 µM): 1.68% | viability, T/C (second compound 0.316 µM, first compound 0.00316 µM): 2.35% | viability, T/C (second compound 0.316 µM, first compound 0.01 µM): 0.3% | viability, T/C (second compound 0.316 µM, first compound 0.0316 µM): 0.24% | viability, T/C (second compound 0.316 µM, first compound 0.1 µM): 1.4% | viability, T/C (second compound 1 µM, first compound 0.000316 µM): 92% | viability, T/C (second compound 1 µM, first compound 0.001 µM): 1.87% | viability, T/C (second compound 1 µM, first compound 0.00316 µM): 0.24% | viability, T/C (second compound 1 µM, first compound 0.01 µM): 0.3% | viability, T/C (second compound 1 µM, first compound 0.0316 µM): 0.15% | viability, T/C (second compound 1 µM, first compound 0.1 µM): 0.92% | viability, T/C (second compound 3.16 µM, first compound 0.000316 µM): 85.5% | viability, T/C (second compound 3.16 µM, first compound 0.001 µM): 1.44% | viability, T/C (second compound 3.16 µM, first compound 0.00316 µM): 0.32% | viability, T/C (second compound 3.16 µM, first compound 0.01 µM): 0.19% | viability, T/C (second compound 3.16 µM, first compound 0.0316 µM): 0.18% | viability, T/C (second compound 3.16 µM, first compound 0.1 µM): 0.22% | viability, T/C (second compound 10 µM, first compound 0.000316 µM): 59.5% | viability, T/C (second compound 10 µM, first compound 0.001 µM): 1.6% | viability, T/C (second compound 10 µM, first compound 0.00316 µM): 3.23% | viability, T/C (second compound 10 µM, first compound 0.01 µM): 1.83% | viability, T/C (second compound 10 µM, first compound 0.0316 µM): 1.14% | viability, T/C (second compound 10 µM, first compound 0.1 µM): 2.44%

Compound: CC(C)CC(NC(=O)CNC(=O)c1cc(Cl)ccc1Cl)B1OC(=O)CC(CC(=O)O)(C(=O)O)O1 (stereo not given)
viability, T/C (compound 0.000316 µM): 100% and 107% | viability, T/C (compound 0.001 µM): 103% and 86.3% | viability, T/C (compound 0.00316 µM): 91.3% and 79.2% | viability, T/C (compound 0.01 µM): 42.1% and 59.8% | viability, T/C (compound 0.0316 µM): 4.17% and 4.53% | viability, T/C (compound 0.1 µM): 0.95% and 1.47% | IC50 (curve of compound): 8.28 nM and 11.1 nM

Compound: CCc1c2c(nc3ccc(O)cc13)-c1cc3c(c(=O)n1C2)COC(=O)[C@]3(O)CC + NC1CCC(NC2CC2c2ccccc2)CC1
IC50 [1]: < 0.949 nM | IC50 [2]: < 0.949 nM | IC50 [3]: < 0.949 nM | IC50 [4]: < 0.949 nM | IC50 [5]: < 0.949 nM | viability, T/C [6]: 46.4% | viability, T/C [7]: 36.2% | viability, T/C [8]: 30.9% | viability, T/C [9]: 8.66% | viability, T/C [10]: 5.82% | viability, T/C [11]: 4.86% | viability, T/C [12]: 46.2% | viability, T/C [13]: 43.4% | viability, T/C [14]: 35% | viability, T/C [15]: 10.1% | viability, T/C [16]: 4.59% | viability, T/C [17]: 4.24% | viability, T/C [18]: 41.5% | viability, T/C [19]: 39% | viability, T/C [20]: 31.5% | viability, T/C [21]: 9.09% | viability, T/C [22]: 5.26% | viability, T/C [23]: 4.62% | viability, T/C [24]: 47.4% | viability, T/C [25]: 43% | viability, T/C [26]: 33.2% | viability, T/C [27]: 9.39% | viability, T/C [28]: 4.03% | viability, T/C [29]: 4.04% | viability, T/C [30]: 45% | viability, T/C [31]: 38.1% | viability, T/C [32]: 26.3% | viability, T/C [33]: 9.03% | viability, T/C [34]: 3.67% | viability, T/C [35]: 3.1%

Compound: CCN(c1cc(-c2ccc(CN3CCOCC3)cc2)cc(C(=O)NCc2c(C)cc(C)[nH]c2=O)c1C)C1CCOCC1 + NC1CC1c1ccc(-c2cccc(O)c2)cc1
IC50 [1]: > 3000 nM | IC50 [2]: > 3000 nM | IC50 [3]: > 3000 nM | IC50 [4]: > 3000 nM | IC50 [5]: > 3000 nM | viability, T/C [8]: 113% | viability, T/C [9]: 115% | viability, T/C [10]: 102% | viability, T/C [11]: 103% | viability, T/C (second compound 0.1 µM, first compound 0.949 µM): 98.9% | viability, T/C (second compound 0.1 µM, first compound 3 µM): 62.8% | viability, T/C [14]: 113% | viability, T/C [15]: 104% | viability, T/C [16]: 118% | viability, T/C [17]: 103% | viability, T/C (second compound 0.316 µM, first compound 0.949 µM): 94.2% | viability, T/C (second compound 0.316 µM, first compound 3 µM): 71.8% | viability, T/C [20]: 100% | viability, T/C [21]: 112% | viability, T/C [22]: 107% | viability, T/C [23]: 95.8% | viability, T/C (second compound 1 µM, first compound 0.949 µM): 96.7% | viability, T/C (second compound 1 µM, first compound 3 µM): 65.5% | viability, T/C [26]: 109% | viability, T/C [27]: 126% | viability, T/C [28]: 108% | viability, T/C [29]: 111% | viability, T/C (second compound 3.16 µM, first compound 0.949 µM): 96.2% | viability, T/C (second compound 3.16 µM, first compound 3 µM): 69.7% | viability, T/C [32]: 127% | viability, T/C [33]: 132% | viability, T/C [34]: 109% | viability, T/C [35]: 127% | viability, T/C (second compound 10 µM, first compound 0.949 µM): 104% | viability, T/C (second compound 10 µM, first compound 3 µM): 77.6%

Continued, in another order:

IC50 (curve of compound): 4050 nM and 4230 nM
Compound: CC1(C)CCC(CN2CCN(c3ccc(C(=O)NS(=O)(=O)c4ccc(NCC5CCOCC5)c([N+](=O)[O-])c4)c(Oc4cnc5[nH]ccc5c4)c3)CC2)=C(c2ccc(Cl)cc2)C1
viability, T/C (compound 0.0316 µM): 95.9% and 81.9% | viability, T/C (compound 0.1 µM): 97.3% and 90.8% | viability, T/C (compound 0.316 µM): 96.5% and 92.7% | viability, T/C (compound 1 µM): 106% and 78.1% | viability, T/C (compound 3.16 µM): 63.5% and 67.6% | viability, T/C (compound 10 µM): 0.81% and 1.22%

IC50 (curve of compound): 3.16 nM and < 0.949 nM
Compound: CCc1c2c(nc3ccc(O)cc13)-c1cc3c(c(=O)n1C2)COC(=O)[C@]3(O)CC
viability, T/C (compound 0.000949 µM): 54.8% and 42% | viability, T/C (compound 0.003 µM): 49.9% and 39.2% | viability, T/C (compound 0.00949 µM): 32.7% | viability, T/C (compound 0.03 µM): 9.62% and 11.7% | viability, T/C (compound 0.0949 µM): 6.2% and 6.67% | viability, T/C (compound 0.3 µM): 5% and 5.21%

IC50 (curve of compound): 438 nM and 432 nM
Compound: Nc1ccccc1NC(=O)c1ccc(CNC(=O)OCc2cccnc2)cc1
viability, T/C (compound 0.00949 µM): 95.6% and 102% | viability, T/C (compound 0.03 µM): 102% and 108% | viability, T/C (compound 0.0949 µM): 89.1% and 128% | viability, T/C (compound 0.3 µM): 69.4% and 70.9% | viability, T/C (compound 0.949 µM): 11.8% and 9.62% | viability, T/C (compound 3 µM): 0.21% and 0.26%
